According to PubChem BioAssay AID252 (DTP/NCI, 2004):
Where “and” joins values, the source holds several entries; their conditions need not be identical. Identical values can stand only once. Inconclusive results and toxic doses are left out. *1 amine or outer side, *2 acyl side, *3 side chain or, on linkers, in order; H or OH if unused. Where a SMILES comes first, the peptide text is derived from it. Bridges are numbered along the chain shown (N, C = ends). Roman numbers before positions name the chains, in order. [ ]: non-standard residue; d: D form. Actinocin(9to1) = Cc1c2oc3c(C)ccc(C(=O)[*:1])c3nc-2c(C(=O)[*:2])c(N)c1=O; aThr = C[C@H](O)[C@H](N)C(=O)O; NMeV = CN[C@H](C(=O)O)C(C)C; Sar = CNCC(=O)O

Tested on: BDF1 mice, intracerebral L1210 leukemia, survival T/C
Test: NCI In Vivo Anticancer Drug Screen. Data for tumor model L1210 Leukemia (intracerebral) in B6D2F1 (BDF1) mice
Conditions: higher = longer survival
In short: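 Survival measured in treated and vehicle-control tumour-bearing mice; value = T/C.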

[1] = endpoint: mean survival time, dose: 60.0 mg/kg/injection, schedule: Q01DX001 (ip), vehicle: saline
[2] = endpoint: mean survival time, dose: 120.0 mg/kg/injection, schedule: Q01DX001 (ip), vehicle: saline
[3] = endpoint: mean survival time, dose: 500.0 mg/kg/injection, schedule: Q01DX001 (ip), vehicle: carboxymethylcellulose (CMC)

Cc1nc(N)nc(N)c1-c1ccc(Cl)c(Cl)c1
T/C (endpoint: mean survival time, dose: 1.08 mg/kg/injection, schedule: Q01DX009 (ip), vehicle: saline): 105 % of control | T/C (endpoint: mean survival time, dose: 1.8 mg/kg/injection, schedule: Q01DX009 (ip), vehicle: saline): 95 % of control | T/C (endpoint: mean survival time, dose: 3.0 mg/kg/injection, schedule: Q01DX009 (ip), vehicle: saline): 98 % of control | T/C (endpoint: mean survival time, dose: 5.0 mg/kg/injection, schedule: Q01DX009 (ip), vehicle: saline): 97 % of control | T/C (endpoint: mean survival time, dose: 8.4 mg/kg/injection, schedule: Q01DX009 (ip), vehicle: saline): 111 % of control | T/C (endpoint: mean survival time, dose: 8.4 mg/kg/injection, schedule: Q04DX003 (ip), vehicle: saline): 104 % of control | T/C (endpoint: mean survival time, dose: 14.0 mg/kg/injection, schedule: Q04DX003 (ip), vehicle: saline): 96 % of control | T/C (endpoint: mean survival time, dose: 23.0 mg/kg/injection, schedule: Q04DX003 (ip), vehicle: saline): 103 % of control | T/C (endpoint: mean survival time, dose: 39.0 mg/kg/injection, schedule: Q04DX003 (ip), vehicle: saline): 93 % of control | T/C (endpoint: mean survival time, dose: 65.0 mg/kg/injection, schedule: Q04DX003 (ip), vehicle: saline): 103 % of control | T/C (endpoint: median survival time, dose: 0.62 mg/kg/injection, schedule: Q01DX009 (ip), vehicle: saline): 106 % of control | T/C (endpoint: median survival time, dose: 1.25 mg/kg/injection, schedule: Q01DX009 (ip), vehicle: saline): 115 % of control | T/C (endpoint: median survival time, dose: 5.0 mg/kg/injection, schedule: Q01DX009 (ip), vehicle: saline): 117 % of control | T/C (endpoint: median survival time, dose: 10.0 mg/kg/injection, schedule: Q01DX009 (ip), vehicle: saline): 104 % of control

COc1ccc(NC(=O)N(CCCl)N=O)cc1
T/C (endpoint: mean survival time, dose: 4.4 mg/kg/injection, schedule: Q01DX015 (ip), vehicle: saline): 105 % of control | T/C (endpoint: mean survival time, dose: 6.6 mg/kg/injection, schedule: Q01DX015 (ip), vehicle: saline): 113 % of control | T/C (endpoint: mean survival time, dose: 9.9 mg/kg/injection, schedule: Q01DX001 (ip), vehicle: carboxymethylcellulose (CMC)): 104 % of control | T/C (endpoint: mean survival time, dose: 10.0 mg/kg/injection, schedule: Q01DX015 (ip), vehicle: saline): 113 % of control | T/C (endpoint: mean survival time, dose: 15.0 mg/kg/injection, schedule: Q01DX001 (ip), vehicle: saline): 102 % of control | T/C (endpoint: mean survival time, dose: 15.0 mg/kg/injection, schedule: Q01DX015 (ip), vehicle: saline): 124 % of control | T/C (endpoint: mean survival time, dose: 19.8 mg/kg/injection, schedule: Q01DX001 (ip), vehicle: carboxymethylcellulose (CMC)): 108 % of control | T/C (endpoint: mean survival time, dose: 22.0 mg/kg/injection, schedule: Q01DX015 (ip), vehicle: saline): 104 % of control | T/C (endpoint: mean survival time, dose: 30.0 mg/kg/injection, schedule: Q01DX001 (ip), vehicle: saline): 105 % of control | T/C (endpoint: mean survival time, dose: 39.6 mg/kg/injection, schedule: Q01DX001 (ip), vehicle: carboxymethylcellulose (CMC)): 102 % of control | T/C [1]: 108 % of control | T/C [2]: 113 % of control | T/C (endpoint: mean survival time, dose: 240.0 mg/kg/injection, schedule: Q01DX001 (ip), vehicle: saline): 111 % of control

CCC(=O)NC1=C(N2CC2C)C(=O)C(NC(=O)CC)=C(N2CC2C)C1=O (configuration not stated)
T/C (endpoint: mean survival time, dose: 1.56 mg/kg/injection, schedule: Q01DX009 (ip), vehicle: Klucel (hydroxypropylcellulose) (HPC)): 96 % of control | T/C (endpoint: mean survival time, dose: 3.12 mg/kg/injection, schedule: Q01DX009 (ip), vehicle: Klucel (hydroxypropylcellulose) (HPC)): 94 % of control | T/C (endpoint: mean survival time, dose: 12.5 mg/kg/injection, schedule: Q01DX009 (ip), vehicle: Klucel (hydroxypropylcellulose) (HPC)): 122 % of control and 335 % of control | T/C (endpoint: mean survival time, dose: 25.0 mg/kg/injection, schedule: Q01DX009 (ip), vehicle: Klucel (hydroxypropylcellulose) (HPC)): 101 % of control and 107 % of control

O=c1[nH]cc(F)c(=O)[nH]1
T/C (endpoint: mean survival time, dose: 12.76 mg/kg/injection, schedule: Q01DX015 (ip), vehicle: carboxymethylcellulose (CMC)): 100 % of control | T/C (endpoint: mean survival time, dose: 19.43 mg/kg/injection, schedule: Q01DX015 (ip), vehicle: carboxymethylcellulose (CMC)): 111 % of control | T/C (endpoint: mean survival time, dose: 29.0 mg/kg/injection, schedule: Q01DX015 (ip), vehicle: carboxymethylcellulose (CMC)): 113 % of control | T/C (endpoint: mean survival time, dose: 79.5 mg/kg/injection, schedule: Q01DX001 (ip), vehicle: carboxymethylcellulose (CMC)): 112 % of control | T/C (endpoint: median survival time, dose: 8.4 mg/kg/injection, schedule: Q01DX009 (ip), vehicle: saline): 105 % of control | T/C (endpoint: median survival time, dose: 14.0 mg/kg/injection, schedule: Q01DX009 (ip), vehicle: saline): 108 % of control | T/C (endpoint: median survival time, dose: 23.0 mg/kg/injection, schedule: Q04DX003 (ip), vehicle: saline): 108 % of control | T/C (endpoint: median survival time, dose: 39.0 mg/kg/injection, schedule: Q01DX009 (ip), vehicle: saline): 107 % of control | T/C (endpoint: median survival time, dose: 39.0 mg/kg/injection, schedule: Q04DX003 (ip), vehicle: saline): 118 % of control | T/C (endpoint: median survival time, dose: 65.0 mg/kg/injection, schedule: Q01DX009 (ip), vehicle: saline): 96 % of control | T/C (endpoint: median survival time, dose: 108.0 mg/kg/injection, schedule: Q04DX003 (ip), vehicle: saline): 156 % of control | T/C (endpoint: median survival time, dose: 180.0 mg/kg/injection, schedule: Q04DX003 (ip), vehicle: saline): 99 % of control

CCn1cnc2c(SC3CCCC3)ncnc21
T/C (endpoint: mean survival time, dose: 30.0 mg/kg/injection, schedule: Q01DX015 (ip), vehicle: carboxymethylcellulose (CMC)): 118 % of control | T/C (endpoint: mean survival time, dose: 62.0 mg/kg/injection, schedule: Q01DX015 (ip), vehicle: carboxymethylcellulose (CMC)): 124 % of control | T/C (endpoint: mean survival time, dose: 62.0 mg/kg/injection, schedule: Q01DX Z (ip), vehicle: carboxymethylcellulose (CMC)): 118 % of control | T/C (endpoint: mean survival time, dose: 125.0 mg/kg/injection, schedule: Q01DX001 (ip), vehicle: carboxymethylcellulose (CMC)): 106 % of control | T/C (endpoint: mean survival time, dose: 125.0 mg/kg/injection, schedule: Q01DX015 (ip), vehicle: carboxymethylcellulose (CMC)): 123 % of control | T/C (endpoint: mean survival time, dose: 200.0 mg/kg/injection, schedule: Q01DX009 (ip), vehicle: carboxymethylcellulose (CMC)): 103 % of control | T/C (endpoint: mean survival time, dose: 250.0 mg/kg/injection, schedule: Q01DX001 (ip), vehicle: carboxymethylcellulose (CMC)): 112 % of control | T/C (endpoint: mean survival time, dose: 250.0 mg/kg/injection, schedule: Q01DX Z (ip), vehicle: carboxymethylcellulose (CMC)): 164 % of control | T/C (endpoint: mean survival time, dose: 375.0 mg/kg/injection, schedule: Q01DX015 (ip), vehicle: carboxymethylcellulose (CMC)): 169 % of control | T/C (endpoint: mean survival time, dose: 400.0 mg/kg/injection, schedule: Q01DX009 (ip), vehicle: carboxymethylcellulose (CMC)): 200 % of control | T/C [3]: 108 % of control | T/C (endpoint: mean survival time, dose: 500.0 mg/kg/injection, schedule: Q01DX Z (ip), vehicle: carboxymethylcellulose (CMC)): 98 % of control | T/C (endpoint: mean survival time, dose: 1000.0 mg/kg/injection, schedule: Q01DX001 (ip), vehicle: carboxymethylcellulose (CMC)): 120 % of control

[N-]=[N+]=CC(=O)NCC(=O)NN
T/C (endpoint: mean survival time, dose: 300.0 mg/kg/injection, schedule: Q01DX Z (ip), vehicle: water): 101 % of control | T/C (endpoint: mean survival time, dose: 400.0 mg/kg/injection, schedule: Q01DX Z (ip), vehicle: water): 87 % of control | T/C (endpoint: mean survival time, dose: 500.0 mg/kg/injection, schedule: Q01DX Z (ip), vehicle: water): 87 % of control

Cc1c2oc3c(C)ccc(C(=O)N[C@@H]4C(=O)N[C@H](C(C)C)C(=O)N5CCC[C@H]5C(=O)N(C)CC(=O)N(C)[C@@H](C(C)C)C(=O)O[C@H]4C)c3nc-2c(C(=O)N[C@@H]2C(=O)N[C@H](C(C)C)C(=O)N3CCC[C@H]3C(=O)N(C)CC(=O)N(C)[C@@H](C(C)C)C(=O)O[C@H]2C)c(N)c1=O (I: [aThr][dV]P[Sar][NMeV] / II: [aThr][dV]P[Sar][NMeV]; ester I:1-I:C, II:1-II:C; linker I:N-II:N via Actinocin(9to1))
T/C (endpoint: mean survival time, dose: 0.11 mg/kg/injection, schedule: Q01DX001 (ip), vehicle: saline): 97 % of control | T/C (endpoint: mean survival time, dose: 0.18 mg/kg/injection, schedule: Q01DX001 (ip), vehicle: saline): 102 % of control | T/C (endpoint: mean survival time, dose: 0.27 mg/kg/injection, schedule: Q01DX001 (ip), vehicle: saline): 102 % of control | T/C (endpoint: mean survival time, dose: 12.0 micrograms/kg/injection, schedule: Q01DX Z (ip), vehicle: saline): 101 % of control | T/C (endpoint: mean survival time, dose: 25.0 micrograms/kg/injection, schedule: Q01DX Z (ip), vehicle: saline): 104 % of control | T/C (endpoint: mean survival time, dose: 50.0 micrograms/kg/injection, schedule: Q01DX Z (ip), vehicle: saline): 102 % of control | T/C (endpoint: mean survival time, dose: 100.0 micrograms/kg/injection, schedule: Q01DX Z (ip), vehicle: saline): 101 % of control

CN(N=O)C(=O)Nc1c[nH]c(=O)[nH]c1=O
T/C [1]: 103 % of control | T/C [2]: 104 % of control | T/C (endpoint: mean survival time, dose: 480.0 mg/kg/injection, schedule: Q01DX001 (ip), vehicle: saline): 108 % of control | T/C (endpoint: mean survival time, dose: 960.0 mg/kg/injection, schedule: Q01DX001 (ip), vehicle: saline): 86 % of control

CN(N=O)C(=O)NCCSc1ncnc2nc[nH]c12
T/C (endpoint: mean survival time, dose: 400.0 mg/kg/injection, schedule: Q01DX001 (ip), vehicle: carboxymethylcellulose (CMC)): 113 % of control | T/C [3]: 121 % of control
